Experimental findings from PMC2751792 (Journal of the American Chemical Society, 2009) are described below.

The structures appear in SMILES notation. Square brackets hold non-standard residues; d marks the D form. Peptide text beside a SMILES is read from it. * marks the point of attachment. Asu = N[C@@H](CCCCCC(=O)O)C(=O)O; β3hL = CC(C)C[C@H](N)CC(=O)O; NHOH = ON* Where only a bound is given, the exact number is not on record here.

The test system of assay [1] is HDAC activity in HeLa cell nuclear extract. The assay is described as follows: Inhibition of HDAC activity in HeLa cell nuclear extract. It counts as biochemical, human. The conditions noted are these: for HDAC inhibitory activity in HeLa cell nuclear extract, result in words: numbers only in Figures 2-4 (not readable); for IC50: read-out: HDAC inhibition, IC50, HeLa, at least in duplicate.

Assay [2] addresses recombinant human HDAC4 (Homo sapiens, UniProt P56524). In words: Recombinant HDAC isoform inhibition, HDAC4. It counts as biochemical.
The target of assay [3] is recombinant human HDAC5 (Homo sapiens, UniProt Q9UQL6). The assay is described as follows: Recombinant HDAC isoform inhibition, HDAC5. It counts as biochemical.
Assay [4] addresses T1, recombinant human HDAC7 (Homo sapiens, UniProt Q8WUI4).
T1 sequence (Q8WUI4 1-952): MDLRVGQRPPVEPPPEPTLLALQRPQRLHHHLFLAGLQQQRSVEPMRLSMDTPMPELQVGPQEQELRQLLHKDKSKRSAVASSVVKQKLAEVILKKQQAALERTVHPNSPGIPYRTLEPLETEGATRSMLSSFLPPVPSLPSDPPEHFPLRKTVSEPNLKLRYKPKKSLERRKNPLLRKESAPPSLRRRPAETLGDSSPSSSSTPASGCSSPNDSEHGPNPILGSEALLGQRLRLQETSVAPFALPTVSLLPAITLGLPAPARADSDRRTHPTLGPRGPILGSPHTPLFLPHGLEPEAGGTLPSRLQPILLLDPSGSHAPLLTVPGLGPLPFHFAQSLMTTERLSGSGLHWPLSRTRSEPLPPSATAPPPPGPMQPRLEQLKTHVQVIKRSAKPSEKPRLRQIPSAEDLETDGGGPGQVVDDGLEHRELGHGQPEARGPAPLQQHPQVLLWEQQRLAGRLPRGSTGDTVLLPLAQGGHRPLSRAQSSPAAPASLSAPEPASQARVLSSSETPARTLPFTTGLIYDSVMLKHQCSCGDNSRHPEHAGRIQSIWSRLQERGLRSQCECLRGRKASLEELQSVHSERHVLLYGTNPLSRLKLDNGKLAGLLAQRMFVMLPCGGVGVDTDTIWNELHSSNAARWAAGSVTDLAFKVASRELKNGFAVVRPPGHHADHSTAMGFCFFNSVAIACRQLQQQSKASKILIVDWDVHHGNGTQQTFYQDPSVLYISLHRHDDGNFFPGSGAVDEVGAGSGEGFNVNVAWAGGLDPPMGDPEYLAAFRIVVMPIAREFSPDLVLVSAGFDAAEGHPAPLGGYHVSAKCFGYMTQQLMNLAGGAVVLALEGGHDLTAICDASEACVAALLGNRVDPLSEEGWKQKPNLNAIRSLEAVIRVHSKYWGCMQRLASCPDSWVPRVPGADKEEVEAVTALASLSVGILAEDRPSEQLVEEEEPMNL
In words: Recombinant HDAC isoform inhibition, HDAC7. It counts as biochemical.

For assay [5], the target named is recombinant human HDAC9 (Homo sapiens, UniProt Q9UKV0). The assay is described as follows: Recombinant HDAC isoform inhibition, HDAC9. It counts as biochemical.
Assay [6] concerns the target T2, recombinant human HDAC10 (Homo sapiens, UniProt Q969S8).
T2 sequence (Q969S8 1-669): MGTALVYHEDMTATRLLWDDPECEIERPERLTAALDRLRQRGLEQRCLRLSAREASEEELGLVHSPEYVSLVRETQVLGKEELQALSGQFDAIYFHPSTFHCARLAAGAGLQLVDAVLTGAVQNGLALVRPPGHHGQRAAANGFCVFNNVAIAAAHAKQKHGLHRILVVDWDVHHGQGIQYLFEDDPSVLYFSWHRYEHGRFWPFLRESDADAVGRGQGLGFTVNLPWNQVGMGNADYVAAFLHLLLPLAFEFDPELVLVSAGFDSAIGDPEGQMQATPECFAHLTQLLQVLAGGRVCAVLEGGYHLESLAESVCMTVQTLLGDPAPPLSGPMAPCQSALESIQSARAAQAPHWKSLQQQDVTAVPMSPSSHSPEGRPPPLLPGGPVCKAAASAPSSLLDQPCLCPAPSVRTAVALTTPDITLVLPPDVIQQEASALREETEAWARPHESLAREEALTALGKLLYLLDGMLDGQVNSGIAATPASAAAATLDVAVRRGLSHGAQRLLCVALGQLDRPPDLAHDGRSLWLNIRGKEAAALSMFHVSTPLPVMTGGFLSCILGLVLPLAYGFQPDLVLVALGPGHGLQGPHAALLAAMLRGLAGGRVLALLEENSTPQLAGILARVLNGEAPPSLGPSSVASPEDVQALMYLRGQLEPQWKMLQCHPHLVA
The assay is described as follows: Recombinant HDAC isoform inhibition, HDAC10. It counts as biochemical.

Assay [7] deals with T3, recombinant human HDAC6 (Homo sapiens, UniProt Q9UBN7).
T3 sequence (Q9UBN7 1-1215): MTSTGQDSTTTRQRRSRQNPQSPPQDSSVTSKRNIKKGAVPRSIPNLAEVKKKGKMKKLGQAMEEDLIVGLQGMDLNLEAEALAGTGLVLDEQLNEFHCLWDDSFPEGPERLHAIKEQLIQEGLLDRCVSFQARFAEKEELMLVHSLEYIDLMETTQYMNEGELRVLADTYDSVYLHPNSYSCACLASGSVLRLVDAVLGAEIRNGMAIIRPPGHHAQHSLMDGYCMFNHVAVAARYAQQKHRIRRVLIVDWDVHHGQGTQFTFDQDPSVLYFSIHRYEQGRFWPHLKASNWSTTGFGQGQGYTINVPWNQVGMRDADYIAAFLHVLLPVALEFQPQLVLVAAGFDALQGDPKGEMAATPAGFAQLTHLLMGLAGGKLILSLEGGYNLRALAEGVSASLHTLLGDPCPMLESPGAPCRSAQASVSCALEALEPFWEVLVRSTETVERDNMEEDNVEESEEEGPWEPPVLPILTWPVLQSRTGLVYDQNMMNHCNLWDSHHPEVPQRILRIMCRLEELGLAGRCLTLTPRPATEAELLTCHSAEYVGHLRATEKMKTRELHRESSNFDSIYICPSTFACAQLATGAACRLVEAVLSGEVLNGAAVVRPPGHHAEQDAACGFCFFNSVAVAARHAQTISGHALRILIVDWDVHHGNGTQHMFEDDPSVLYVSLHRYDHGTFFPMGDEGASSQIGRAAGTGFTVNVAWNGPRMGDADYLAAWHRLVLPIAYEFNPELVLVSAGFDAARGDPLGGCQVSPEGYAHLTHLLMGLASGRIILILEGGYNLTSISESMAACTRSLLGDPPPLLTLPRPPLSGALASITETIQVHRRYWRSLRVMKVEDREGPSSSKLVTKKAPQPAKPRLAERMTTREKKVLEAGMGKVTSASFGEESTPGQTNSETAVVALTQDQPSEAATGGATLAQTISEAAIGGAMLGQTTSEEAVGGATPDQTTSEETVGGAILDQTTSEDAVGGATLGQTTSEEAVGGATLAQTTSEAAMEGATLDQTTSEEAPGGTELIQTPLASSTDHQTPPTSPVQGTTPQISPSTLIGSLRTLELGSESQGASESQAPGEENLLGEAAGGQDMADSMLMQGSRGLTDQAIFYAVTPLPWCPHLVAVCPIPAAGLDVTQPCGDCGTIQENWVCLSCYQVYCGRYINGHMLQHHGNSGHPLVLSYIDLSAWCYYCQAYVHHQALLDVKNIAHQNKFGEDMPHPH
The assay is described as follows: Recombinant HDAC isoform inhibition, HDAC6. It counts as biochemical.

Assay [8] addresses recombinant human HDAC1 (Homo sapiens, UniProt Q13547). The assay is described as follows: Recombinant HDAC isoform inhibition, HDAC1. It counts as biochemical.
Assay [9] deals with recombinant human HDAC3 (Homo sapiens, UniProt O15379). In words: Recombinant HDAC isoform inhibition, HDAC3. It counts as biochemical.
Assay [10] addresses recombinant human HDAC2 (Homo sapiens, UniProt Q92769). In words: Recombinant HDAC isoform inhibition, HDAC2. It counts as biochemical.

Sequence of recombinant human HDAC9 (Q9UKV0 whole entry, canonical isoform): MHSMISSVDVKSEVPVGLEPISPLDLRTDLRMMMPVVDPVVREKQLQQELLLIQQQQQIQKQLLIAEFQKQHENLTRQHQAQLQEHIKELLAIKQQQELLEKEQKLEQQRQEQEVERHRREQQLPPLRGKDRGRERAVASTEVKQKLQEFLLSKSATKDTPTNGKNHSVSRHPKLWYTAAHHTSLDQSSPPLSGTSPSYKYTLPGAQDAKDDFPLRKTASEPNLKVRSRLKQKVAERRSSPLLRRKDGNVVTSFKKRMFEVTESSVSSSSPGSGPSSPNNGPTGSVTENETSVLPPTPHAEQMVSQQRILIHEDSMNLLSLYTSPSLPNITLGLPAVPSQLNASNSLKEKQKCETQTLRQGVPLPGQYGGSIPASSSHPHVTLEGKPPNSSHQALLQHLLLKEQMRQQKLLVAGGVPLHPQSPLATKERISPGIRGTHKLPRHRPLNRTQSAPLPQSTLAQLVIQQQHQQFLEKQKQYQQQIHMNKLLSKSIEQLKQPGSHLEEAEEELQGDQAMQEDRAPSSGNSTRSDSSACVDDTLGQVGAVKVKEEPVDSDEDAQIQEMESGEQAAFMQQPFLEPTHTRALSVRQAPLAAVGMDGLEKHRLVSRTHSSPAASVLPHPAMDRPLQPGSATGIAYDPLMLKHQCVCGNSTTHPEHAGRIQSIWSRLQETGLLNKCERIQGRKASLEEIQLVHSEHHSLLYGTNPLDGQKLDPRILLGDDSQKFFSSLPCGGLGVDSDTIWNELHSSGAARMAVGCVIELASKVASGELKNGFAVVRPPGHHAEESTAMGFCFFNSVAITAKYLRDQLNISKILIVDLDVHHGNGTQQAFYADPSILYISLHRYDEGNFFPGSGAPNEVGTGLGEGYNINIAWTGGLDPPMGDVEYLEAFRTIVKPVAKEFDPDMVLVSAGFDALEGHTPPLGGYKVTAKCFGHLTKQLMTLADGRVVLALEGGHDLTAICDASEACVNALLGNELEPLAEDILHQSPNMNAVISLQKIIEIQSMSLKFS
Sequence of recombinant human HDAC5 (Q9UQL6 whole entry, canonical isoform): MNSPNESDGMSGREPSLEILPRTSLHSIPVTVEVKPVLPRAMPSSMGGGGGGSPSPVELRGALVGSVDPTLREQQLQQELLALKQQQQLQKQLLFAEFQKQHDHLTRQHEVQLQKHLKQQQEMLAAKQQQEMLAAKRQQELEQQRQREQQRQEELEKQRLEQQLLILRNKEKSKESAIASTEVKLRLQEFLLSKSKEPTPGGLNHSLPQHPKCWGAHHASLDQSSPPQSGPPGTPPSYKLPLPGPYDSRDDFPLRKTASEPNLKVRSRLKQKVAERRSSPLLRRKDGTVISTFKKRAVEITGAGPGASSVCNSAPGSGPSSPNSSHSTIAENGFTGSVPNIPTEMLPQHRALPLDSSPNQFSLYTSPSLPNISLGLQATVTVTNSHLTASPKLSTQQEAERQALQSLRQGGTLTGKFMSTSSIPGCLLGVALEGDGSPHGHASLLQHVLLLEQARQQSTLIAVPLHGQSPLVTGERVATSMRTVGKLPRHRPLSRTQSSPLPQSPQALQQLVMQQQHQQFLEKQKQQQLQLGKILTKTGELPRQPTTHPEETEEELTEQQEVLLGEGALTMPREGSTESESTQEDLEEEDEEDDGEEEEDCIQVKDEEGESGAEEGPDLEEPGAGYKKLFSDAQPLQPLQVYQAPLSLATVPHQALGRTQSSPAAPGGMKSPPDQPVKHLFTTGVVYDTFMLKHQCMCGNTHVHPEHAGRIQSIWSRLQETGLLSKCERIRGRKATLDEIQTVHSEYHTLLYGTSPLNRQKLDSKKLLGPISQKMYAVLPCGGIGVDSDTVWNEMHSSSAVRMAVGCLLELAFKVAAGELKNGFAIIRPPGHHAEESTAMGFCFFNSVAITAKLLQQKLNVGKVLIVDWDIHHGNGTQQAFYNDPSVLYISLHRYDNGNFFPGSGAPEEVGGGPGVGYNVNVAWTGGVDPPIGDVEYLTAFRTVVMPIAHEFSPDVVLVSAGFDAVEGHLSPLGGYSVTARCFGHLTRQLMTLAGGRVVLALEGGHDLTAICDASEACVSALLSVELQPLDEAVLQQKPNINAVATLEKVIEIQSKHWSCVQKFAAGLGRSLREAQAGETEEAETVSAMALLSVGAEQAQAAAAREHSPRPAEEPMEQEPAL
Sequence of recombinant human HDAC4 (P56524 whole entry, canonical isoform): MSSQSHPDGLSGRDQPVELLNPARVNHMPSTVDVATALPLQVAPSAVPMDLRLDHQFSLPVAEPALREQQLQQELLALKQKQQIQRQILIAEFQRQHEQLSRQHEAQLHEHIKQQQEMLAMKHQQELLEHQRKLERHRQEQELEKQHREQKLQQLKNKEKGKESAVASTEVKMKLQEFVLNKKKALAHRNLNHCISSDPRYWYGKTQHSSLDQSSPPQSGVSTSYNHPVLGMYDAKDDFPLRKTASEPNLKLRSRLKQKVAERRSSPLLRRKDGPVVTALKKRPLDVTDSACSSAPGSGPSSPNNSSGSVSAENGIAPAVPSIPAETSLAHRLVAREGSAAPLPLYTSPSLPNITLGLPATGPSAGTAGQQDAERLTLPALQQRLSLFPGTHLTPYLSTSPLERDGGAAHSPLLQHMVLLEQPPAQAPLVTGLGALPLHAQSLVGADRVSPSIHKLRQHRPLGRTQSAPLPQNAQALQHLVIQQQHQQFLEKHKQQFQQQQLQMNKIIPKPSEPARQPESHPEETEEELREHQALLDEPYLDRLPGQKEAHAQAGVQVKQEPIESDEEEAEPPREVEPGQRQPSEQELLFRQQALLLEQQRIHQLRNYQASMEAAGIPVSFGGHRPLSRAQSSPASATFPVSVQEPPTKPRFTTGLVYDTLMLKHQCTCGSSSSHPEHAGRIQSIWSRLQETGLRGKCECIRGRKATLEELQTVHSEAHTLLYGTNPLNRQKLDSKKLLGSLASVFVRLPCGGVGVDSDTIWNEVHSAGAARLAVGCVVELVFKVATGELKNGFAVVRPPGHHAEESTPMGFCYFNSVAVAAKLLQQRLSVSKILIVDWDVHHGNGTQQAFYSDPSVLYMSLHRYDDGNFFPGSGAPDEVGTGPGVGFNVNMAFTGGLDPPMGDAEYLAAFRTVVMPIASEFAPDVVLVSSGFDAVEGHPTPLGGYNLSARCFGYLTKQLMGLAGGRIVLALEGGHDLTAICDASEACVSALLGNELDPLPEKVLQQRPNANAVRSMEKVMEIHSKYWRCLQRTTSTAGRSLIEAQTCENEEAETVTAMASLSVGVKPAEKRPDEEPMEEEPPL
Sequence of recombinant human HDAC1 (Q13547 whole entry, canonical isoform): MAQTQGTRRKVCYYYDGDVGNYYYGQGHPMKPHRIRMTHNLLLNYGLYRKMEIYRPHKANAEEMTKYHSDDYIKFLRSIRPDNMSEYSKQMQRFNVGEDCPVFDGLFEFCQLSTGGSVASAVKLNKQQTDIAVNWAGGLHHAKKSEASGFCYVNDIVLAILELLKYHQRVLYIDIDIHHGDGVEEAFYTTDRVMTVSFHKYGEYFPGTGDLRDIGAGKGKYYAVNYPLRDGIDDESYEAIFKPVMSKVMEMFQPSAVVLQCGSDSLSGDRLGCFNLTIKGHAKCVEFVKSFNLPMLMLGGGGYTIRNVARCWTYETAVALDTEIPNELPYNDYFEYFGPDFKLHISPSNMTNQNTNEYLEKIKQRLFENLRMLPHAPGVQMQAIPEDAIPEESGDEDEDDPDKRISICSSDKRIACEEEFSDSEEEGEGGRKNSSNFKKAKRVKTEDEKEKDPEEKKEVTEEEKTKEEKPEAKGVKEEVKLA
Sequence of recombinant human HDAC3 (O15379 whole entry, canonical isoform): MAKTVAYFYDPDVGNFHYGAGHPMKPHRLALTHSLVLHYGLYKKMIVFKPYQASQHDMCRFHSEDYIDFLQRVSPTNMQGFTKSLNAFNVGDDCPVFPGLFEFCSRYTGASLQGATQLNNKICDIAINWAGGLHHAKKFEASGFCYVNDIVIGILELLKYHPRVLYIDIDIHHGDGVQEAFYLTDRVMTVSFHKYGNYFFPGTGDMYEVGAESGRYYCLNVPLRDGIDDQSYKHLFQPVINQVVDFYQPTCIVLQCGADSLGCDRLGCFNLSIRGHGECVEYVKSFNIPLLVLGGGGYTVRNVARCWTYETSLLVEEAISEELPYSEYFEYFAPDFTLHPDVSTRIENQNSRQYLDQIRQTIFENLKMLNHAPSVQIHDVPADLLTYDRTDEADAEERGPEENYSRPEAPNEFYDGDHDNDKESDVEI
Sequence of recombinant human HDAC3 (Q9Y618 395-489 partner limits assumed): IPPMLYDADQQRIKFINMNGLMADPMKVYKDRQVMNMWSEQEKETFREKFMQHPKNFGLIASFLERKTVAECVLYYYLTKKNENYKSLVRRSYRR
Sequence of recombinant human HDAC2 (Q92769 whole entry, canonical isoform): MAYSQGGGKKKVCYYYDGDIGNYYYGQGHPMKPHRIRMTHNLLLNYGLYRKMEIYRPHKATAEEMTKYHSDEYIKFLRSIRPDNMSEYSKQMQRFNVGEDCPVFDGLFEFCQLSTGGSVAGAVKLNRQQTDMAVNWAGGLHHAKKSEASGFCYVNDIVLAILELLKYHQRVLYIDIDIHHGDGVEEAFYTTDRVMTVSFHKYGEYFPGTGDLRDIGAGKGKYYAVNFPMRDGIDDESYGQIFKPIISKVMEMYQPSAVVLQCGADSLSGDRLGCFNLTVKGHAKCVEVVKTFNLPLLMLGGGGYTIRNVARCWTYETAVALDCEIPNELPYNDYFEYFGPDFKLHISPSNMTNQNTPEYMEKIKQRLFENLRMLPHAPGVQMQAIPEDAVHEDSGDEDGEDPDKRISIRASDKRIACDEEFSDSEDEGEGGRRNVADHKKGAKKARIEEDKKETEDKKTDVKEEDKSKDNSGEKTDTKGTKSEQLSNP

For `CCC(=O)CCCCC[C@@H]1NC(=O)[C@@H]2CCCN2C(=O)C[C@H](CC(C)C)NC(=O)[C@H](Cc2c[nH]c3ccccc23)NC1=O` [compound 4], the “HDAC inhibitory activity in HeLa cell nuclear extract, result in words” value (“HDAC inhibitory activity” below) in assay [1] is recorded as “low nanomolar IC50 values comparable to that of apicidin”. The IC50 was 9 nM in [1]; more than 10000 nM in [2]; 50 nM in assay [3]; more than 10000 nM in [4]; 22 nM in assay [5].

Turning to `CC(C)C[C@H]1CC(=O)N[C@@H](C)C(=O)N[C@@H](CCCCCC(=O)O)C(=O)N[C@@H](Cc2c[nH]c3ccccc23)C(=O)N1` [3b] (cyclo([Asu]W[β3hL]A)), the “HDAC inhibitory activity” value in assay [1] was “significantly decreased potency”. Besides, the IC50 in assay [2] was more than 10000 nM; in assay [3] it was 700 nM; in assay [4], more than 10000 nM; in assay [5], 550 nM; in assay [6], 280 nM.

`CCC(=O)CCCCC[C@@H]1NC(=O)[C@H](C)N(C)C(=O)C[C@H](CC(C)C)NC(=O)[C@H](Cc2c[nH]c3ccccc23)NC1=O` [3h]: in assay [1], the “HDAC inhibitory activity” value is listed as “modest loss of potency”. The IC50 in assay [2] is more than 10000 nM; in [3], 60 nM; in [4], more than 10000 nM; in assay [5] it was 25 nM; in assay [7] it was more than 10000 nM; in [6] it was 28 nM.

As to `CC(C)C[C@H]1CC(=O)N[C@@H](C)C(=O)N[C@@H](CCCCCC(=O)NO)C(=O)N[C@@H](Cc2c[nH]c3ccccc23)C(=O)N1` [3a] (cyclo([Asu](NHOH)W[β3hL]A)), the IC50 in assay [2] was more than 10000 nM; in assay [3], 2.5 nM; in [4], more than 10000 nM; in assay [5] it was 0.6 nM; in [6], 0.2 nM.

As to `CC(C)C[C@H]1CC(=O)N2CCC[C@H]2C(=O)N[C@@H](CCCCCC(=O)NO)C(=O)N[C@@H](Cc2c[nH]c3ccccc23)C(=O)N1` [4a] (cyclo([Asu](NHOH)W[β3hL]P)), in assay [1], the “Increase of potency relative to the parent ethylketones 3 and 4” value is given as “at least 10 fold”. Moreover, the IC50 in [1] was less than 1 nM; in assay [8] it was 0.6 nM; in assay [9], 35 nM; in [2], more than 10000 nM; in assay [4], more than 10000 nM; in assay [7], 35 nM.

For `CCC(=O)CCCCC[C@@H]1NC(=O)C[C@H](C)NC(=O)C[C@H](CC(C)C)NC(=O)[C@H](Cc2c[nH]c3ccccc23)NC1=O` [compound 5], the “HDAC inhibitory activity” value in [1] is given as “high nanomolar activity”.

Turning to `CCC(=O)CCCCC[C@@H]1NC(=O)[C@H](C)NC(=O)C[C@H](CC(C)C)NC(=O)[C@H](Cc2c[nH]c3ccccc23)NC1=O` [compound 3], the IC50 in assay [1] is 19 nM; in [8], 35 nM; in [10] it was 30 nM; in [2], more than 10000 nM; in assay [3] it was 70 nM; in [4] it was more than 10000 nM. In addition, the IC50 amounted to 30 nM in assay [5] and 20 nM in assay [6].

In general, IC50 refers to the concentration needed to halve the response being measured.
